Experimental data as given in publication PMC12731536, “Sc(III) Complexes of Pyclen Derivative Ligands as Probes for Hypoxia: Synthesis, Chemical Characterization, ^44Sc‐Radiolabeling, and Preclinical Assessment” (Chemistry (Weinheim an Der Bergstrasse, Germany), 2025).
Like-named read-outs stand apart in the source and are kept apart here.

Key:
[1] = cited from earlier work
[2] = Stability constants of Sc(III) complexes, out‐of‐cell (batch) samples, 45Sc NMR; format: physicochemical; conditions: for AL/M (relative affinity): [Sc(III)]total = 10 nM, [L]tot = 100 nM
Procedure: The stability constant of the complex of PC2AM^nBu ligand formed with Sc(III) ion was studied using “out‐of‐cell” (batch) samples using ^45Sc NMR spectroscopy in strongly acidic media. Typical ^45Sc NMR spectra are shown in Figure 5 along with the corresponding ^1H NMR spectra of the aromatic region of the ligand.
Using the ^45Sc NMR signal intensities of free Sc^3+ measured in the equilibrated samples, the stability constant, K ScL, was calculated by fitting the areas with the PSEQUAD program ^[ [47] ^] (Figure 6). The best fitting was observed by considering the simplest model including only [Sc(PC2AM^nBu)]^+ species; that is, the formation of protonated [Sc(HPC2AM^nBu)]^2+ cannot be confirmed.
The stability constant of the [Sc(PCTA)] complex was determined in a similar way (Figure S13). The results were summarized in Table 2, including the data of [Sc(DO3AM‐NI)], determined in our previous study.^[ [33] ^]
Among the complexes shown in Table 2, the [Sc(DO3AM‐NI)] complex has the highest stability, but its stability constant is lower than the corresponding values of [Sc(DOTA)]^− (log K ScL = 30.79) and [Sc(DTPA)]^2− (log K ScL = 27.43). ^[ [49] ^] As evidenced for DO3AM‐mono(amide) the replacement of acetate side chains with amide groups results in a decrease in stability constant (and conditional stability); therefore, we can see an order of magnitude difference between the stabilities of [Sc(PCTA)] and [Sc(PC2AM^nBu)]^+. Although these K ScL constants and pSc values are somewhat lower than those of the complexes formed with traditional DOTA and DTPA ligands, these chelators remain remarkably good Sc(III)‐binding chelators. […] Therefore, following the proposal of M. Meyer and colleagues,^[ [48] ^] […] For the AL/M values, 1 corresponds to 90%, 2 corresponds to 99%, 3 corresponds to 99.9% etc. for complex formation. […] The AL/M data of the [Sc(PC2AM^nBu)]^+ complex only exceeds that of the [Sc(DO3AM‐NI)] complex in the pH < 3.0 range, which can be advantageous for labeling at low pH. Furthermore, based on the data in Table 2, it can be concluded that for these systems there is no discrepancy between the trends observed in the pSc and AL/M values.
The stability constant of [Sc(PC2AM^nBu)]^+ and [Sc(PCTA)] complexes was studied using “out‐of‐cell” (batch) samples using ^45Sc and ^1H NMR spectroscopy. The NMR spectra were obtained using a Bruker Avance II DRX spectrometer (9.4 T), equipped with Bruker Variable Temperature Unit, Bruker Cooling Unit, and a 5 mm BB inverse z gradient probe. For the investigation of [Sc(PC2AMnBu)]⁺, twelve samples (cSc(III) = 3.00 mM, cligand = 3.06 mM, in the pH range of –log[H^+] = 0.1–1.3; I = 1.0 M NaCl/HCl) were prepared in NMR tubes and kept at 25 °C for one week to reach equilibrium. During this period, ^1H and ^45Sc NMR measurements were performed daily to monitor changes in signal intensities. No significant changes were detected after one week, even in the most acidic sample. The intensities of the free Sc(III) signals were normalized using a standard 50 mM ScCl3 solution containing 1 M HCl (20% D2O). For the determination of the stability of the [Sc(PCTA)] complex, eleven “batch” samples (cSc(III) = 4.00 mM, cligand = 4.08 mM), in the pH range of –log[H^+] = 0.1–1.25, were prepared. The evaluation of the measured data was performed using the PSEQUAD program.^[ [47] ^] Samples were prepared in H2O, with 10% D2O added for deuterium lock. The actual resonance frequencies for ^1H, ^13C, ^19F, and ^45Sc are indicated in the text and figure captions. The chemical shifts of ^1H and ^13C were calibrated using an external TMS standard, while ^19F was referenced to CCl3F. The ^45Sc NMR shift was calibrated to 0 ppm using a 5 mM solution of ScCl3 in 0.1 M HCl.

[3] = I = 0.15 M NaCl, T = 25 °C; cited from earlier work
[4] = pH‐potentiometric determination of ligand protonation constants; format: physicochemical; conditions: T = 25 °C
Procedure: The equilibrium study of the PC2AM^nBu ligand has been started by determining the protonation constants in 0.15 M and 1.00 M NaCl ionic strength. (As the stability of the Sc(III) complex was determined in 1.00 M ionic strength, we had to perform the pH‐potentiometric titration of ligands using 1.00 M ionic strengths also.) The results of pH‐potentiometric measurement are shown in Table 1, where the corresponding data for 3,9‐PC2A,^[ [42] ^] PCTA ^[ [46] ^] and PC2AM‐NI ligands determined under identical conditions are also presented. Knowledge of the protonation constants defined by Eqn. 1 and 2 are essential for the calculation of the stability constants of the Sc(III) complexes:
(1) PC2AM^nBu^2−+nH^+⇌Hn(PC2AM^nBu)^−2+n (2) βn=HnPC2AM^nBu^−2+n/PC2AM^nBu^2−H^+^n
The protonation constants of the ligands, as well as the concentrations of the ligand stock solutions, were determined by pH‐potentiometric method using a Metrohm 785 DMP Titrino automatic titrator using a Metrohm 6.00234.100 combined glass electrode. The titrations were carried out in the pH range 1.75–11.80 and the pH electrode was calibrated by a two‐point calibration routine with the use of 0.05 M KH‐phthalate (pH = 4.005) and 0.01 M borax (pH = 9.177 buffers. The samples were stirred at 25 °C (±0.1 °C) and N2 gas bubbled into the system to ensure inert conditions and to eliminate the effect of the presence of CO2. For the calculation of [H^+] from the measured pH values, the method proposed by Irving et al. was applied.^[ [61] ^] For this, a 0.01 M HCl solution was titrated with the standardized NaOH solution in the presence of 0.15 M NaCl ionic strength at 25 °C. The differences between the measured (pHread) and calculated pH (‐log[H^+]) values were used to obtain the equilibrium H^+ concentration from the pHmeas values during the titrations. By fitting the resulting titration curves (pH – V (NaOH) data pairs) with the PSEQUAD program, the protonation constants of the ligands were determined.^[ [47] ^] The titration of the [Sc(PC2AM^nBu)]^+ with NaOH was performed with the same method by applying very similar conditions.

[5] = Acid‐assisted dissociation (decomplexation) of Sc(III) complexes, UV spectroscopy; format: physicochemical; conditions: dissociation of the Sc(III) complex, 1.6‐2.6 M HClO4, 25 °C, I = 2.6 M
From the text: The inertness of metal complexes is a basic requirement in all relevant modalities of medical imaging. Complexes of macrocyclic ligands are often more inert compared to open‐chain analogs. In order to assess the behavior of our complexes, the decomplexation of [Sc(PC2AM^nBu)]^+ and [Sc(PCTA)] was studied in a strongly acidic medium (cH + = 1.6 ‐ 2.6 M HClO4) by using UV spectroscopy. […] The primary Abs. versus time curves have been fitted by monoexponential function returning kobs (s^−1) values (Figures S22 and S23).
The plots of the rate constants as a function of acid concentration yielded linear relationships for both complexes (k obs = k 0 + k 1[H^+]). The slopes of these lines correspond to the rate coefficients characteristic for acid‐assisted dissociation (k 1), whereas the intercepts characterize the acid‐independent part, often referred to as a rate of spontaneous dissociation. […] The rate coefficients obtained during the fitting are summarized in Table 3, along with the half‐lives calculated from the rate coefficients by using 1 M acid concentration (t ½ = ln 2 / k obs).
Kinetic studies of the dissociation of the [Sc(PC2AMnBu)]^+ and [Sc(PCTA)] complexes were carried out by examining the dependence of the dissociation rates on acid concentration. Spectrophotometric measurements were conducted on a JASCO V‐760 spectrophotometer at λ = 280 nm. The concentration of the complex in the sample was 0.30 mM, and HClO4 was applied in concentrations ranging from 1.6 to 2.6 M. The evaluation of the measured data was performed with Scientist software ^[ [62] ^] to determine the k 0 (spontaneous) and k 1 (acid‐assisted) reaction rates.

[6] = Time course of Sc(III) complex formation, 45Sc NMR; format: physicochemical
Procedure: The time course of complex formation of PC2AM^nBu and PCTA ligands with Sc(III) ion was investigated by ^45Sc‐NMR under acidic conditions (cSc = cligand = 10 mM and 9.5 mM, respectively, ‐log[H^+] = 1.28). The decrease of the narrow signal of the free Sc(III) ion was monitored as a function of time. […] The kinetic measurements of formation could be seen in Figures S18 and S19. The complexation for the [Sc(PCTA)] chelate at pH = 1.28 and 25 °C took about 300 minutes to reach the equilibrium, whereas for the [Sc(PC2AM^nBu)]^+ complex it took a bit longer time under these conditions. (In order to confirm that the samples reached the equilibrium, we have repeated the ^45Sc NMR study for both samples after a few days when the signal of the free Sc(III) was absent, and only the signals of the complexes were detected.) The detailed study of formation kinetics was not our aim in this project. One can expect that the reaction follows the well‐known mechanisms of M(III) ‐ macrocyclic APC systems ^[ [54] ^]: formation of a protonated intermediate in fast pre‐equilibrium followed by a slow, base‐catalyzed deprotonation/structural rearrangement as a rate‐determining step. The intermediate is named also as “out‐of‐cage complex.”^[ [55] ^] Our experimental curves are likely in accordance with this mechanism. Fitting the measured data for the free Sc(III) signals by a monoexponential function gives the rate constant k obs = (1.04 ± 0 .05) x 10^−4 s^−1 for the [Sc(PC2AM^nBu)]^+ and k obs = (2.51 ± 0.12) x 10^−4 s^−1 for the [Sc(PCTA)] complex. […] The relatively fast complex formation at the given acidic condition is very encouraging for the Sc(III) labeling experiments.
^45Sc NMR measurements (97 MHz) were performed on a Bruker DRX 400 (9.4 T) spectrometer equipped with a Bruker VT‐1000 thermocontroller and a BB inverse z‐gradient probe (5 mm). The kinetic experiments were performed at 25 °C in aqueous solution, using D2O (10% v/v) as a lock solvent. Typical parameters for 45Sc NMR measurements were used: TD = 32k, p1 = 15.6 µs (90°), d 1 = 0.1 s. The formation reactions of the [Sc(PC2AM^nBu)]^+ and [Sc(PCTA)] complexes were monitored by ^45Sc NMR spectroscopy in two sample types: one containing 10.0 mM PC2AM^nBu and ScCl3 / 9.5 mM […] and ScCl3. In both cases, the total acid concentration corresponded to a pH of 1.28. Obtained monoexponential curves (signal area of free Sc(III) vs. time) were fitted using Scientist software ^[ [62] ^] to determine the formation rate.

## O=C(O)CN1CCN(CC(=O)O)CCN(CC(=O)NCCn2ccnc2[N+](=O)[O-])CCN(CC(=O)O)CC1 [DO3AM‐NI]
[1]; pSc = ‐log[Sc(III)]free, cSc(III) = 1x10^−8 M, clig = 1x10^−7 M, pH = 7.4, I = 0.15 M NaCl
  pSc: 20.74
[1]; stability constant of the Sc(III) complex, I = 0.15 M NaCl, T = 25 °C
  log K ScL: 22.36
[2]; pH = 7.4, I = 0.15 M NaCl, calculated from constants of ref 33
  AL/M (relative affinity): 6.57
[3]
  log β 2 ^H: 17.38

## CCCCNC(=O)CN1CCN(CC(=O)O)Cc2cccc(n2)CN(CC(=O)O)CC1 [PC2AM^nBu]
[4]; I = 0.15 M NaCl
  log K 1 ^H: 8.79(1)
  log K 2 ^H: 7.59(1)
  log K 3 ^H: 2.31(2)
  log K 4 ^H: 1.28(3)
  log β 2 ^H: 16.38
[4]; I = 1.00 M NaCl
  log K 1 ^H: 8.13(2)
  log K 2 ^H: 7.59(1)
  log K 3 ^H: 2.52(1)
  log β 2 ^H: 15.72
[5]
  k 0 (spontaneous dissociation): 0 s⁻¹
  k 1 (acid‐assisted dissociation): (3.64 ± 0.08) x 10^−7 M^−1s^−1
[2]; pH = 7.4, I = 1.00 M NaCl
  AL/M (relative affinity): 5.17
[2]; pSc = ‐log[Sc(III)]free, cSc(III) = 1x10^−8 M, clig = 1x10^−7 M, pH = 7.4, I = 1.00 M NaCl
  pSc: 19.32
[2]; stability constant of the Sc(III) complex, I = 1.00 M NaCl, T = 25 °C
  log K ScL: 19.53(4)

## O=C([O-])CN1CCN(CC(=O)[O-])CCN(CC(=O)[O-])CCN(CC(=O)[O-])CC1.[Sc+3] [[Sc(DOTA)]^−]
[1]; literature stability constant
  log K ScL: 30.79

## O=C([O-])CN(CCN(CC(=O)[O-])CC(=O)[O-])CCN(CC(=O)[O-])CC(=O)[O-].[Sc+3] [[Sc(DTPA)]^2−]
[1]; literature stability constant
  log K ScL: 27.43

## O=C([O-])CN1CCN(CC(=O)[O-])Cc2cccc(n2)CN(CC(=O)[O-])CC1.[Sc+3] [[Sc(PCTA)]]
[6]; pH = 1.28, 25 °C
  time of complexation to reach the equilibrium: about 300 minutes
[6]; ‐log[H^+] = 1.28, 25 °C
  half‐life of the complex formation reaction (t 1/2 = ln2 / k obs): 46 min
[6]; ‐log[H^+] = 1.28, 25 °C, cSc = cligand = 10 mM (PC2AM^nBu) or 9.5 mM (PCTA), monoexponential fit of free Sc(III) signal
  k obs of complex formation: (2.51 ± 0.12) x 10^−4 s^−1
